The record followed here is patent US12343326B2, “Psychoactive medicines and their use for treating psychiatric and neurological conditions and disorders” (Transcend Therapeutics, Inc., priority 2021, dated 2025).

Data set [1] has as its system C57BL/6J mice. The data set is described as follows: Mouse head-twitch response (HTR) test. Format: in vivo. As to conditions: i.p., any dose tested, HTR measured for 10 minutes. How it is done:
Head twitch response (HTR) was evaluated using C57BL/6J mice (ages 7-10 weeks), Mice were ear tagged at least three days after arrival to the animal facility and allowed to rest for at least three days before behavioral testing. Small magnets (SuperMagnetMan—N45 magnet 3 mm diameter, 0.5 mm thickness) were glued to ear tags (Stoelting—La Pias Aluminum Ear Tags) at least two days before mice were ear tagged. The experimental setup was adapted from Gonzales-Maeso (de la Fuente Revenga et al., 2019) and Kwan (Jefferson et al., 2022; Savalia et al., 2021), including experimental apparatus and MATLAB code for analysis.
Doses were randomly assigned, and age-matched controls were injected with vehicle and randomly interspersed with drug conditions. At least three animals per sex were used for each drug dose and condition. If animals were used in multiple HTR experiments, experimental sessions took place at least one week apart. Two animals were run at a time. Immediately after i.p. injection of psychedelic or entactogen drug, animals were placed in separate plastic boxes within a larger chamber (Home Depot—28 in. W×32 in. H×21.5 in. D), and HTR was measured for 10 minutes. A small lamp was placed in the back of the larger chamber, and a high-speed camera (Basler—Aca 1920-155 μm) was suspended from the ceiling to record video of the animals in the plastic boxes. […]

Data set [2] concerns participants with PTSD. The data set is described as follows: IMPACT-1 Part A open-label study of methylone for PTSD. Format: in vivo, human. From the text: Brief Summary: This is a two-part study to assess methylone for the management of the symptoms of PTSD. Part A is an open-label, non-controlled assessment in up to 15 evaluable participants with PTSD to assess early safety and efficacy and to confirm procedures included in the blinded portion (Part B) of the study. After completion of Part A, enrollment for Part B will begin in up to 64 participants. Part B is identical to Part A with the exception of the inclusion of a placebo arm in Part B.
For each participant in Parts A and B, the study consists of: • Screening Period (Day −28 to Day −4): Informed consent, eligibility assessment, and enrolment of eligible participants. • Baseline/Preparatory Session (Day −3 to Day −1): Baseline assessments, confirmation of eligibility, and a preparatory psychoeducation session leading to enrolment confirmation. • Treatment Period (Day 1 to Day 24): Four weekly dose sessions, with associated remote sessions. The dose sessions last at least 8 hours, or until all effects (physical and psychological) have resolved (whichever is longer). Each dose session is followed by a safety phone call 1 day after dosing and efficacy assessments 2 days after dosing. Each dosing period is video recorded for quality and training purposes. The videos may be reviewed to ensure the Mentor is adhering to the Mentor training. • Follow-Up Period (Day 29 to Day 64): Follow-Up visits for safety and efficacy occur at 1, 2, 3 and 6 weeks post-final study drug administration. In addition, there are Mentor-Led Reflection Sessions 1, 2 and 3 weeks post-final study drug administration. Participants are contacted via telephone on Day 57 (±2 days) for Follow-Up. • Discontinuations: Participants who discontinue prematurely are asked to return for an extra visit to duplicate the 6-week end-of-study (EOS) visit.
Each dose was given as an initial dose, followed by a second dose 90 minutes later. During the dosing session, participants were accompanied by a trained Mentor who provided non-directive support. After the 4-week treatment period, participants attended follow-up visits at 1, 2, 3, and 6 weeks following the last dose. Safety was assessed via standard measures including adverse events. PTSD symptoms were assessed via Clinician-Administered PTSD Scale for DSM-5 (CAPS-5), depressive symptoms were assessed via Montgomery-Asberg Depression Rating Scale (MADRS). Anti-anxiety efficacy was evaluated using the Anxiety Sub-Scale of MADRS, namely, questions (Items 3, 4, 5, 6) that address four anxiety items (inner tension, reduced sleep, reduced appetite, concentration difficulties) Changes from baseline were analyzed using a paired t-test p-values.
Methods: The IMPACT-1 study is a multi-center, two-part clinical trial. Part A has completed and was an open-label evaluation involving 14 participants with PTSD. Eligible participants are adults with severe PTSD (CAPS-5≥35) who had failed at least 1 prior treatment (pharmacotherapy and/or psychotherapy) for PTSD. […] Throughout each dosing session, participants were provided non-directive psychological support by a trained mental health practitioner. Following the 4-week treatment period, participants were followed for an additional 6 weeks to evaluate the durability of the therapeutic effect. PTSD symptom improvement was evaluated on the CAPS-5. Functioning was assessed via the 3 domains (school/work, family life, social life) of the Sheehan Disability Scale (SDS). Global improvement was measured by the CGI-I. Safety was assessed by monitoring adverse events, vital signs, and C-SSRS.
Following the 4-week treatment period, participants were followed for an additional 6 weeks to evaluate the durability of the therapeutic effect. […]

A short description of data set [3]: Excipient compatibility study (appearance, assay, related substances). It counts as physicochemical. To be noted: closed vial. How it is done: Analyses were conducted at t=0, 2, 4 and 8 weeks for appearance, assay, and related substances for samples stored in closed vials at 25° C./60% RH and 40° C./75% RH.
Excipient Compatibility Sample Mixtures: The excipients and API were dispensed individually by weight into 20 mL clear borosilicate (type I) glass vials to fill the appropriate weights as listed in Table 12. Table 12 lists mixtures of API with varied excipients and a stand-alone control sample of API alone. Each excipient mixture sample preparation was conducted using a clean spatula to mix the vial ingredients for 30-60 seconds. Each vial was properly labeled with the description and storage conditions. One vial was used for testing at the initial (t=0) time point. Three vials, closed, were placed at each storage condition to allow sampling at each time point and one vial, closed, was placed at each storage condition for overage.

As to `CNC(C)C(=O)c1ccc2c(c1)OCO2` (centres unmarked) [methylone, 3,4-methylenedioxy-N-methylcathinone], the head-twitch behaviors result in data set [1] was “no effect on head-twitch behaviors at any dose tested”. Also, in data set [1] (listed as Methylone), the head-twitch behaviors result is listed as “no hallucinogenic activity”. In data set [2] (Day 3), the “CAPS-5 scores decreased by” value came to 8.4 points and the “MADRS scores decreased by” value turned out to be 8.2 points. The “drug-related SAEs” value in data set [2] (Safety Population, N = 14) was “No drug-related SAEs occurred”. In addition, in data set [2] (after treatment), the “participants with absence of Distressing Dreams symptom” value is 77%, the “participants with absence of Reduced Sleep symptom (MADRS)” value turned out to be 62% and the “participants with absence of Sleep Disturbances symptom” value came to 62%. For the same compound, the “participants much or very much improved (CGI-I)” value in data set [2] (end of the study) was “all participants”. For the same compound, in data set [3] (4 Week 25° C./60% RH), the “Assay (% Recovery)” value was 100.3%. Besides, in data set [3] (8 Week 40° C./75% RH), the “Assay (% Recovery)” value is reported as 100.3%.
